Test results as given in publication PMC6222847, “Application of HPCCC Combined with Polymeric Resins and HPLC for the Separation of Cyclic Lipopeptides Muscotoxins A–C and Their Antimicrobial Activity” (Molecules : A Journal of Synthetic Chemistry and Natural …, 2018).
Values after ≈ are worked out from the molar mass of the structure shown. *1 amine or outer side, *2 acyl side, *3 side chain or, on linkers, in order; H or OH if unused. Where a SMILES comes first, the peptide text is derived from it. [ ]: non-standard residue; d: D form. X1 = CCCCCC(O)CC(N[*:1])C(O)C(=O)[*:2]; X2 = CC1C[C@@H](C(=O)[*:2])N([*:1])C1; d(aIle) = CC[C@H](C)[C@@H](N)C(=O)O; Dhb = C/C=C(\N)C(=O)O

What was measured:
[1] = Partition coefficient (K) in two-phase HPCCC solvent systems; assay type: physicochemical; conditions: 2 mg extract in 2 mL (1 mL per phase), HPLC-ESI-HRMS
Source text: When working with HPCCC, the search for a proper two-phase solvent system has been informed to represent the major part of the work involved in the HPCCC separation. An appropriate two-phase solvent system for HPCCC has to provide a good partition coefficient (0.5 ≤ K ≤ 2.5) for the target compound. […] Additionally, for achieving a good resolution between two closely eluting peaks, the separation factor (α) between the two compounds (α = K2/K1, K2 > K1) should be greater than 1.5 [14, 26]. It is well described that compounds with smaller K values show a poor resolution because they elute closer to the solvent front. On the contrary, those compounds with larger K value are better separated but elute as wider peaks and at later elution times. In the present study, the capacity of different two-phase solvent systems (Table 1) to provide suitable K values of the compounds 1–3 was investigated. The K value is frequently estimated by using HPLC with UV detection, which is calculated by dividing the peak area of the target compound in the upper phase by that of the peak area of the same target compound in the lower phase. However, given that UV chromatogram provided insufficient peak areas for minor muscotoxins, the MS detector was thus used to estimate the K values. By using this approach, the peak area of the molecular ions corresponding to the target compounds were selectively monitored from the base peak chromatogram. As presented in the Table 1, the solvent system 10 (n-hexane, ethyl acetate, ethanol, and water in a ratio of 1:5:1:5) gave suitable K values and a proper separation factor (α) for compounds 2 and 3, as well as a short settling time. […] The improvement of the K value of compound 1 could be achieved by finding out a new solvent system or by modifying the composition of the already selected solvent system. In the present study, the system 10 was acidified by adding acetic acid leading to the system 11 (n-hexane, ethyl acetate, ethanol, water, and acetic acid, 1:5:1:5:1). […] Although the partition coefficients of the target compounds in systems 10 and 11 are strongly correlated, the system 10 ensured a sufficient selectivity (α = 1.5) between the compounds 2 and 3. […] In HPCCC, it is very well established that when the retention of stationary phase is increased, a good chromatographic resolution is achieved. A reduced flow rate of the mobile phase and a high rotational speed of the column favor the retention of the stationary phase inside the HPCCC column. In this study, the flow rate of the mobile phase in the first step and second step of the HPCCC operations was 1 mL/min and the rotational speed was set at 1200 rpm. Moreover, it was observed that a good resolution between the compounds 2 and 3 was achieved when injecting 100 mg of enriched extract.
Different two-phase solvent systems were prepared using n-hexane, ethyl acetate, ethanol, water, and acetic acid in different proportions (Table 1). The prepared solvent systems were investigated for their capacity to provide suitable partition coefficients (K) of the target compounds. In addition, given that the settling time as well as the density difference between the upper and lower phases of each two-phase solvent system are parameters associated with the retention of stationary phase in the column, they were thus estimated and used as selection criteria. For estimating the partition coefficient (Table 1) of the target compound, 2 mg of extract containing the target compounds was dissolved in 2 mL of a given two-phase solvent system (1 mL per each phase). The test tube containing the sample solution was shaken vigorously, and then left, to equilibrate the two phases, for 20 min. Equal volumes of each phase were then analyzed by HPLC-ESI-HRMS to obtain the partition coefficients (K), which were calculated by dividing the peak area of the target compound in the upper phase by the peak area of compound in the lower phase.

Candida friedrichii = assay: microbe, parasite or virus in culture; assay type: cell-based; conditions: Yamadazyma friedrichii; C. friedrichii BCC020_2879; Muller Hinton broth with 2% glucose, 300–0.0732 µg/mL (control 32–0.0625), 30 °C 48 h, triplicate; least concentration showing any inhibition; read-out: MIC
Protocol: (§1) Furthermore, compound 1 was evaluated for its antimicrobial activity against five bacterial isolates; S. aureus (CCM3824), B. subtilis (CCM1999), S. sanguinis (CCM4047), P. aeruginosa (CCM1959), E. coli (CCM2024), and eight fungal isolates; C. friedrichii (BCC020_2879), A. fumigatus (BCC020_2845), F. oxysporum (BCC020_2866), T. harzianum (BCC020_0606), B. sorokiniana (BCC020_1571), M. cucumerina (BCC020_2872), C. globosum (BCC020_2527), and A. alternata (BCC020_0609) using broth two-fold microdilution method following the standard protocol. Briefly, for broth microdilution method, the compounds were serially diluted at varying concentrations between 300 and 0.0732 µg/mL in Mueller Hinton broth (for bacteria) and Muller Hinton broth with 2% glucose (for fungi) in 96-well plates. Culture broth (0.1 mL) was added to each well containing the compound. Plates were incubated aerobically at 37 °C for 16 h (bacteria) and 30 °C for 48 h (for fungi). Negative controls were prepared separately with respective organisms in the same culture media with methanol (the dissolving solvent). Positive controls were also prepared separately with respective organisms. Erythromycin (32–0.0625 µg/mL) was used as positive control for S. aureus and S. sanguinis, gentamycin (32–0.0625 µg/mL) was used as positive control for Bacillus subtilis, E. coli, and P. aeruginosa, whereas fluconazole (32–0.0625 µg/mL) was used as positive control for all the fungal isolates. After incubation, the well with the least concentration of the compound showing any inhibition in the growth was taken as the MIC value for the respective organisms. MIC95 was determined as the concentration required to inhibit or kill 95% of bacterial isolates spectroscopically at 600 nm. Minimum fungicidal concentration (MFCs) were determined after 48 h incubation by removing 10 µL of the contents from wells showing no visible growth and spreading them on to Sabouraud dextrose agar plates. The plates were then incubated for 72 h and MFCs were determined as the concentrations which killed 95–100% of the inoculum. All the experiments were done in triplicate.

Fusarium oxysporum = assay: microbe, parasite or virus in culture; assay type: cell-based; conditions: Fusarium oxysporum; F. oxysporum BCC020_2866; Muller Hinton broth with 2% glucose, 300–0.0732 µg/mL (control 32–0.0625), 30 °C 48 h, triplicate; least concentration showing any inhibition; read-out: MIC
Protocol: as §1

Chaetomium globosum = assay: microbe, parasite or virus in culture; assay type: cell-based; conditions: Chaetomium globosum; C. globosum BCC020_2527; Muller Hinton broth with 2% glucose, 300–0.0732 µg/mL (control 32–0.0625), 30 °C 48 h, triplicate; least concentration showing any inhibition; read-out: MIC
Protocol: as §1

Aspergillus fumigatus = assay: microbe, parasite or virus in culture; assay type: cell-based; conditions: Aspergillus fumigatus; A. fumigatus BCC020_2845; Muller Hinton broth with 2% glucose, 300–0.0732 µg/mL (control 32–0.0625), 30 °C 48 h, triplicate; least concentration showing any inhibition; read-out: MIC
Protocol: as §1

Trichoderma harzianum = assay: microbe, parasite or virus in culture; assay type: cell-based; conditions: Trichoderma harzianum; T. harzianum BCC020_0606; Muller Hinton broth with 2% glucose, 300–0.0732 µg/mL (control 32–0.0625), 30 °C 48 h, triplicate; least concentration showing any inhibition; read-out: MIC
Protocol: as §1

Monographella cucumerina = assay: microbe, parasite or virus in culture; assay type: cell-based; conditions: Plectosphaerella cucumerina; M. cucumerina BCC020_2872; Muller Hinton broth with 2% glucose, 300–0.0732 µg/mL (control 32–0.0625), 30 °C 48 h, triplicate; least concentration showing any inhibition; read-out: MIC
Protocol: as §1

Alternaria alternata = assay: microbe, parasite or virus in culture; assay type: cell-based; conditions: Alternaria alternata; A. alternata BCC020_0609; Muller Hinton broth with 2% glucose, 300–0.0732 µg/mL (control 32–0.0625), 30 °C 48 h, triplicate; least concentration showing any inhibition; read-out: MIC
Protocol: as §1

Bacillus subtilis = assay: Broth two-fold microdilution; assay type: cell-based; conditions: B. subtilis CCM1999; Mueller Hinton broth, 300–0.0732 µg/mL (control 32–0.0625), 37 °C 16 h, triplicate; MIC = least concentration showing any inhibition in the growth
Protocol: Furthermore, compound 1 was evaluated for its antimicrobial activity against five bacterial isolates; S. aureus (CCM3824), B. subtilis (CCM1999), S. sanguinis (CCM4047), P. aeruginosa (CCM1959), E. coli (CCM2024), and eight fungal isolates; C. friedrichii (BCC020_2879), A. fumigatus (BCC020_2845), F. oxysporum (BCC020_2866), T. harzianum (BCC020_0606), B. sorokiniana (BCC020_1571), M. cucumerina (BCC020_2872), C. globosum (BCC020_2527), and A. alternata (BCC020_0609) using broth two-fold microdilution method following the standard protocol. Briefly, for broth microdilution method, the compounds were serially diluted at varying concentrations between 300 and 0.0732 µg/mL in Mueller Hinton broth (for bacteria) and Muller Hinton broth with 2% glucose (for fungi) in 96-well plates. Culture broth (0.1 mL) was added to each well containing the compound. […] MIC95 was determined as the concentration required to inhibit or kill 95% of bacterial isolates spectroscopically at 600 nm. Minimum fungicidal concentration (MFCs) were determined after 48 h incubation by removing 10 µL of the contents from wells showing no visible growth and spreading them on to Sabouraud dextrose agar plates. The plates were then incubated for 72 h and MFCs were determined as the concentrations which killed 95–100% of the inoculum. […]

Sclerotinia sclerotiorum = assay: Disc diffusion antifungal assay; assay type: cell-based; conditions: S. sclerotiorum, 250–1.5625 µg/disk, Czapek-Dox medium, mycelium growth after 4 days by image analysis, triplicate
Protocol: Due to the unavailability of enough amounts of isolated compounds, the antifungal activity for all the isolated compounds (1–3) was initially tested only against plant pathogenic fungi Sclerotinia sclerotiorum by determining the minimum inhibitory concentration (MIC) using disc diffusion assay. Compounds (1–3) were dissolved in MeOH at different concentrations and further transferred (20 µL) on layer filter paper targets (size 5 mm) to get desired concentrations of 250–1.5625 µg/disk. Discs were placed at the border of Petri dish (average 35 mm) containing Czapek-Dox medium. The mycelial target of the plant pathogenic fungus S. sclerotiorum (0.5 cm in diameter) was inoculated on the opposite sites of dish. […] The growth of fungal mycelium after 4 days in the presence of the studied compounds was evaluated using digital image analysis. […] The images (TIFF format) were converted by thresholds, and the area of binary objects corresponding to size of grown mycelium was measured and evaluated by software NIS-ELEMENTS AR ver. […] The inhibition of the mycelium growth (inhibition zone in percentages) was calculated as the difference between the measurements (in px) of the total area of fungal mycelium (negative controls) and of the area that is covered with mycelium (treated dishes).

[2] = solvent system 4, n-Hex–EtOAc–EtOH–H2O 7:3:5:5, shaken, 20 min, K = peak area UP/LP
[3] = solvent system 5, n-Hex–EtOAc–EtOH–H2O 6:4:5:5, shaken, 20 min, K = peak area UP/LP
[4] = solvent system 7, n-Hex–EtOAc–EtOH–H2O 4:5:4:5, shaken, 20 min, K = peak area UP/LP
[5] = solvent system 8, n-Hex–EtOAc–EtOH–H2O 3:5:3:5, shaken, 20 min, K = peak area UP/LP
[6] = solvent system 9, n-Hex–EtOAc–EtOH–H2O 2:5:2:5, shaken, 20 min, K = peak area UP/LP
[7] = solvent system 11, n-Hex–EtOAc–EtOH–H2O–AcOH 1:5:1:5:1, shaken, 20 min, K = peak area UP/LP

C/C=C1\NC(=O)[C@H](CO)NC(=O)[C@@H]([C@@H](C)CC)NC(=O)[C@H](Cc2ccccc2)NC(=O)[C@@H]2CC(C)CN2C(=O)CNC(=O)[C@@H](CCC(N)=O)NC(=O)C(O)C(CC(O)CCCCC)NC(=O)[C@@H]2CCCN2C(=O)[C@@H]([C@@H](C)CC)NC(=O)[C@H](CO)NC1=O (stereo partly shown) [compound 3, muscotoxin B] (cyclo([Dhb]S[d(aIle)]P[X1][dQ]G[X2]F[d(aIle)]S))
Partition Coefficient (K) of Muscotoxins ([1]; solvent system 1, n-Hex–EtOH–H2O 10:5:5, shake test tube, equilibrated 20 min, K = peak area upper phase/lower phase): 0.01
Partition Coefficient (K) of Muscotoxins ([1]; solvent system 2, n-Hex–EtOAc–EtOH–H2O 9:1:5:5, shaken, 20 min, K = peak area UP/LP): 0.01
Partition Coefficient (K) of Muscotoxins [1, 2]: 0.02
Partition Coefficient (K) of Muscotoxins [1, 3]: 0.04
Partition Coefficient (K) of Muscotoxins ([1]; solvent system 6, n-Hex–EtOAc–EtOH–H2O 5:5:5:5, shaken, 20 min, K = peak area UP/LP): 0.01
Partition Coefficient (K) of Muscotoxins [1, 4]: 0.05
Partition Coefficient (K) of Muscotoxins [1, 5]: 0.27
Partition Coefficient (K) of Muscotoxins [1, 6]: 1.22
Partition Coefficient (K) of Muscotoxins ([1]; solvent system 10, n-Hex–EtOAc–EtOH–H2O 1:5:1:5, shaken, 20 min, K = peak area UP/LP): 1.41
Partition Coefficient (K) of Muscotoxins [1, 7]: 2.45

OC(Cn1cncn1)(Cn1cncn1)c1ccc(F)cc1F [fluconazole, reference compound]
MIC (Candida friedrichii): 8 µg/mL (≈ 26.1 µM)
MIC (Fusarium oxysporum): 8 µg/mL (≈ 26.1 µM)
MIC (Chaetomium globosum): 2 µg/mL (≈ 6.53 µM)
MIC (Aspergillus fumigatus): 32 µg/mL (≈ 104 µM)
MIC (Trichoderma harzianum): 4 µg/mL (≈ 13.1 µM)
MIC (Monographella cucumerina): 2 µg/mL (≈ 6.53 µM)
MIC (Alternaria alternata): 2 µg/mL (≈ 6.53 µM)

gentamycin [reference compound]
MIC (Bacillus subtilis): 4 µg/mL

muscotoxin C [compound 1]
Partition Coefficient (K) of Muscotoxins [1, 2]: 0.01
Partition Coefficient (K) of Muscotoxins [1, 3]: 0.01
Partition Coefficient (K) of Muscotoxins [1, 4]: 0.02
Partition Coefficient (K) of Muscotoxins [1, 5]: 0.08
Partition Coefficient (K) of Muscotoxins [1, 6]: 0.40
Partition Coefficient (K) of Muscotoxins [1, 7]: 1.09
lowest dose to manifest its activity (Sclerotinia sclerotiorum): > 250 µg
